Measurements published in US20080275095A1, “Combination of Prostaglandin E2 Receptor Antagonists and Renin-Angiotensin System Inhibitors for Treating Renal Diseases” (Astellas Pharma Inc., priority 2004, published 2008).

Test system: rat uninephrectomized anti-Thy-1 nephritis model
Assay: Combination effect of captopril and FR233074 on rat uninephrectomized anti-Thy-1 nephritis model
Type: in vivo
Conditions: for elevation in systolic blood pressure: 10 weeks after administration of the antibody, FIG. 9; for elevation in systolic blood pressure / glomerular and tubulointerstitial injury (histological observation): versus control group; for increase in urinary excretion of protein: 24-h urine up to 24 weeks after antibody, captopril 30 mg/kg/day, FR233074 20 mg/kg/day, FIG. 3; for time from the disease induction to the renal death (time point for 1/Cr=0.1): linear extrapolation from averaged 1/Cr and 1/Cr slope, FIG. 8; for rate of decline in renal function (1/Cr slope): single agents versus control, combination versus each agent alone, FIG. 7; for glomerular and tubulointerstitial injury (histological observation): FIG. 12-13
Procedure: Male Wistar rats (6-weeks old) were used for the example. These Wistar rats were anesthetized by administration of pentobarbital and subjected to unilateral nephrectomy. Two weeks later, these rats were injected with anti-Thy-1 antibody (gift of Department of Cell Biology, Institute of Nephrology, Niigata University Graduate School of Medical and Dental Sciences, Japan) from tail vein of them to induce anti-Thy-1 nephritis. Normal group were subjected to only ventrotomy without unilateral nephrectomy and injected with saline instead of anti-Thy-1 antibody.
One week after administration of the antibody, the rats were weighted, blood of the rats were collected (0.55 ml from subclavian vein), and 24-h urine collections were performed. Then, these rats were divided into the groups based on body weight, renal function parameters (BUN (blood urea nitrogen) and serum creatinine) and urinary excretion of protein.
The agents were administered to the rats for 23 weeks from the day of the grouping. 2, 4, 6, 8, 12, 16, 20 and 24 weeks after administration of the antibody (at 24 weeks after administration of the antibody, the administration of the agents was finished), the rats were weighted, blood of the rats were collected, 24-h urine collections were performed, and then, body weight, renal function parameters and urinary excretion of protein of the rats were determined. Systemic blood pressure of each rat was also measured at 10 weeks after administration of the antibody.
An averaged value of 1/Cr in each group at one week after disease induction was plotted, and drew down linearly, based on an averaged value of 1/Cr slope in each group. A time point for 1/Cr=0.1 was calculated, and defined as time reaching renal death (time point for 1/Cr=0.1 is one of standards for introducing dialytic therapy in clinical practice).

SMILES | elevation in systolic blood pressure | increase in urinary excretion of protein | time from the disease induction to the renal death (time point for 1/Cr=0.1) | rate of decline in renal function (1/Cr slope) | glomerular and tubulointerstitial injury (histological observation)
O=C(NS(=O)(=O)Cc1ccccc1)c1cccc(C[C@@H]2CCCC=C2c2nc(-c3ccccc3)c(-c3ccccc3)o2)c1 [FR233074, N-benzylsulfonyl-3-{[(1S)-2-(4,5-diphenyloxazol-2-yl)-2-cyclohexen-1-yl]methyl}benzamide] | no significant effect | suppressed | prolonged | decreased | extent of damage was reduced
C[C@H](CS)C(=O)N1CCC[C@H]1C(=O)O [captopril] | suppressed | suppressed | prolonged | decreased | extent of damage was reduced
